According to publication PMC3748103, “Characterization of FKGK18 as Inhibitor of Group VIA Ca^2+-Independent Phospholipase A2 (iPLA2β): Candidate Drug for Preventing Beta-Cell Apoptosis and Diabetes” (PLoS ONE, 2013):

Biological target: T1, iPLA2β (Group VIA Ca^2+-independent phospholipase A2) (Rattus norvegicus, UniProt P97570)
T1 construct: gene Pla2g6; iPLA2β overexpressed in INS-1 insulinoma cells (OE), cytosol
T1 sequence (P97570 1-807): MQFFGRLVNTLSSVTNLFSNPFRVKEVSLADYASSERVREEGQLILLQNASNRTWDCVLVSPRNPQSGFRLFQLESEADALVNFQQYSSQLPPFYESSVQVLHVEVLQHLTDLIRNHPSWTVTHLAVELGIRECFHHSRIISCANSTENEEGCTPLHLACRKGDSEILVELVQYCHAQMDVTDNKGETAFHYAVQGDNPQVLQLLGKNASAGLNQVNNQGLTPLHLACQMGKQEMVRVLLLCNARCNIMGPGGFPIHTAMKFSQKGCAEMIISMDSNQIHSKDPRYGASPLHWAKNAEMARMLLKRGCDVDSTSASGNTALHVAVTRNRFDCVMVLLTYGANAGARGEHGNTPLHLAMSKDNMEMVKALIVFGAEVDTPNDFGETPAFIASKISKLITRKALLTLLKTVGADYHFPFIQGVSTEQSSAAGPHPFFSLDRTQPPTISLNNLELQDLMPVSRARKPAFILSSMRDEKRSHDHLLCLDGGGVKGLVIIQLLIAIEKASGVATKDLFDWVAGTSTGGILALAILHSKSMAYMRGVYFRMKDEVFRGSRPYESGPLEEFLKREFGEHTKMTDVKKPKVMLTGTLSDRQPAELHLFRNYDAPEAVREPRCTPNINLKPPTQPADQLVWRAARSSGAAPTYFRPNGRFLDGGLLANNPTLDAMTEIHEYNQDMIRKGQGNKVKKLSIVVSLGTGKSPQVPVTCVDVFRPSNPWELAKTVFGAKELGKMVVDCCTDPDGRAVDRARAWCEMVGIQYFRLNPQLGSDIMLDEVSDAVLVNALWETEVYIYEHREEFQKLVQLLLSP
Experiment: radioactive PLA2 activity assay ([…]-PAPC) in cytosol of iPLA2β-overexpressing INS-1 cells
Format: biochemical

Structure (SMILES) | IC50 [nM]
O=C(CCCCc1ccc2ccccc2c1)C(F)(F)F [FKGK18, 1,1,1-trifluoro-6-(naphthalen-2-yl)hexan-2-one] | ~50
O=C1O/C(=C/Br)CC[C@@H]1c1cccc2ccccc12 [R-BEL, (E)-6-(bromo-methylene) tetrahydro-3-(1-naphthalenyl)-2H-pyran-2-one] | ~3000
